According to patent publication EP2084165B1, “POSITIVELY CHARGED WATER-SOLUBLE PRODRUGS OF OXICAMS AND RELATED COMPOUNDS WITH VERY HIGH SKIN PENETRATION RATE” (Techfields Biochem Co. Ltd, priority 2006, dated 2008):
Where a name gives a salt, the structure may show the parent alone. Read-outs that look alike come from different tables or passages of the source.

How the values were obtained:
in vivo = conditions: mouse, topical or ocular
Description: The donor consisted of a 20% solution of these compounds in 1 mL of isopropanol applied to a 10 cm^2 on the backs of the hairless mice. Plasma levels of drugs were determined by a specific high-performance liquid chromatography method.

Solubility in water = conditions: for solubility: water, solubility in water
[1] = Acute toxicity, LD50 orally in mice; format: in vivo; conditions: mouse, in vivo
Excerpt: (§1) The acute toxicity of the prodrugs was investigated. […].

mice [2] = assay: Analgesic activity: acetic acid writhing test in mice; format: in vivo; conditions: for No. of Writhings: 50 mg/kg transdermally 60 minutes before acetic acid solution intraperitoneally, control group 35.0; for Rate of Inhibition (%): 50 mg/kg transdermally 60 minutes before acetic acid solution, based on the control group
Description: The number of writhings that occurred when mice were administered an acetic acid solution intraperitoneally were counted, and the rate of inhibition based on the control group was calculated. […] The group A is the control group.

mice [3] = assay: Acute toxicity, LD50 orally in mice; format: in vivo; conditions: oral, mice
Excerpt: as §1

Rats = assay: Antipyretic activity: rats given sterilized E. coli suspension as pyrogen; format: in vivo; conditions: 25 mg/kg transdermally 2 hours after E. coli pyrogen, in °C (unit assumed)
Description: Antipyretic activity: Rats received a sterilized E. coli suspension as a pyrogen. […] The body temperature of the rats was taken at 90 min. intervals before and after the administration of the test compounds.

[4] = prodrug versus the drug itself (testosterone); cited from earlier work
[5] = oral, mice, read-out: LD50 orally in mice

| Compound | Cmax (in vivo) [µg/mL] | Tmax (in vivo) [min] | solubility (Solubility in water) [mg/mL] | LD50 ([1]; po) [mg/kg] | No. of Writhings (mice [2]) | Rate of Inhibition (%) (mice [2]) | body temperature of the rats, t = 0 min. (Rats) | body temperature of the rats, t = 90 min. (Rats) | body temperature of the rats, t = 180 min. (Rats) | body temperature of the rats, t = 270 min. (Rats) | further results |
| --- | --- | --- | --- | --- | --- | --- | --- | --- | --- | --- | --- |
| CN(C)CCCC(=O)OC1=C(C(=O)Nc2ccccn2)N(C)S(=O)(=O)c2ccsc21 | ~500 | ~50 | > 300 | 500 |  |  |  |  |  |  |  |
| CN(C)CCCC(=O)OC1=C(C(=O)Nc2ccccn2)N(C)S(=O)(=O)c2ccccc21 | ~500 | ~50 | > 300 | 550 |  |  |  |  |  |  |  |
| Cc1cnc(NC(=O)C2=C(OC(=O)CCCN(C)C)c3ccccc3S(=O)(=O)N2C)s1.Cl |  |  |  |  |  |  |  |  |  |  | time until peak plasma levels were reached after application of the donor systems (in vivo): ~50 min |
| CN(C)CCCC(=O)OC1=C(C(=O)Nc2ccccn2)N(C)S(=O)(=O)c2cc(Cl)sc21 | ~500 | ~50 | > 300 | 580 |  |  |  |  |  |  |  |
| CN(C)CCCC(=O)OC(Nc1ccccn1)=C1C(=O)c2sc(Cl)cc2S(=O)(=O)N1C | ~500 | ~50 | > 300 | 610 |  |  |  |  |  |  |  |
| CN(C)CCCC(=O)OC1=C(C(=O)Nc2nccs2)N(C)S(=O)(=O)c2ccccc21 |  | ~50 |  | 670 |  |  |  |  |  |  |  |
| 4- N,N-dimethylaminobutyryloxy - 2-methyl-N-[5-Methyl-3-isoxolyl-2H-1,2-benzothiazine-3-carboxamide 1,1-dioxide] .HCl [G] |  |  |  |  | 15.8 | 55 | 37.52±0.06 | 36.62±0.07 | 36.53±0.06 | 36.60±0.05 | peak plasma levels (in vivo): ~0.5 mg/mL; time until peak plasma levels were reached after application of the donor systems (in vivo): ~50 min; LD50 orally in mice (mice [3]): 570 mg/kg |
| CN(C)CCCC(=O)OC1=C(C(=O)Nc2ccccn2)N(C)S(=O)(=O)c2ccccc21 [B, 4-N,N-dimethylaminobutyryloxy-2-methyl-N-2-pyridinyl-2H,1,2-benzothiazine-3-carb oxamide 1,1-dioxide.HCl] |  |  |  |  | 15.6 | 55 | 37.57±0.06 | 36.51±0.05 | 36.40±0.06 | 36.45±0.07 | solubility in water (Solubility in water): 250 mg/mL |
| CN(C)CCCC(=O)OC1=C(C(=O)Nc2nccs2)N(C)S(=O)(=O)c2ccccc21 [C, N-(2-thiazoyl)-4-N,N-dimethylaminobutyryloxy-2-methyl-2H,1,2-benzothiazine-3-carbo xamide 1,1-dioxide.HCl] | ~500 |  | > 300 |  | 15.7 | 55 | 37.50±0.07 | 36.61±0.04 | 36.50±0.07 | 36.60±0.05 | solubility in water (Solubility in water; listed as N-(2-thiazolyl)-4-N,N-dimethylaminobutyryloxy-2-methyl-2H,1,2-benzothiazine-3-ca): 250 mg/mL |
| CN(C)CCCC(=O)OC1=C(C(=O)Nc2ccccn2)N(C)S(=O)(=O)c2cc(Cl)sc21 [Compound D, 6-chloro-4-N,N-dimethylaminobutyryloxy-2-methyl-N-2-pyridinyl-2H-thieno[2,3-e]-1 ,2-thiazine-3-carboxamide 1,1-dioxide.HCl] |  |  |  |  | 16.5 | 53 | 37.55±0.05 | 36.66±0.06 | 36.60±0.06 | 36.61±0.07 | solubility in water (Solubility in water): 250 mg/mL |
| CN(C)CCCC(=O)OC1=C(C(=O)Nc2ccccn2)N(C)S(=O)(=O)c2ccsc21 [E, 4-N,N-dimethylaminobutyryloxy-2-methyl-N-2-pyridinyl-2H-thieno[2,3-e]-1,2-thiazine-3-carboxamide 1,1-dioxide.HCl] |  |  |  |  | 16.9 | 53 | 37.54±0.06 | 36.61±0.06 | 36.58±0.08 | 36.55±0.05 | solubility in water (Solubility in water): 250 mg/mL |
| CN(C)CCCC(=O)OC(Nc1ccccn1)=C1C(=O)c2sc(Cl)cc2S(=O)(=O)N1C.Cl [F, 8-chloro-(4-N,N-dimethylaminobutyryloxy-pyridine-2-ylamino-methylidene)-3-methy 1-2,2-dioxo-2λ^6'7-dithia-3-azabicyclo[4,3,0]nona-8,10-dien-5-one.HCl] |  |  |  |  | 17.5 | 50 | 37.53±0.05 | 36.57±0.05 | 36.52±0.07 | 36.51±0.06 |  |
| Cc1cnc(NC(=O)C2=C(OC(=O)CCCN(C)C)c3ccccc3S(=O)(=O)N2C)s1 [H, 4-N,N-dimethylaminobutyryloxy-2-methyl-N-(5-methyl-2-thiazolyl)-2H-1,2-benzothiazine-3-carboxamide-1,1-dioxide.HCl] | ~500 |  |  |  | 18.2 | 48 | 37.57±0.07 | 36.53±0.08 | 36.52±0.08 | 36.50±0.07 | LD50 [1, 5]: 590 mg/kg |
| CN1C(C(=O)Nc2ccccn2)=C(O)c2ccccc2S1(=O)=O [Piroxicam, reference compound] | ~5 |  |  |  |  |  |  |  |  |  | LD50 [1, 5]: 360 mg/kg |
| CN(C)CCCC(=O)O[C@H]1CC[C@H]2[C@@H]3CCC4=CC(=O)CC[C@]4(C)[C@H]3CC[C@]12C.Cl [TSBH, testosteronyl-4-dimethylaminobutyrate.HCl] |  |  |  |  |  |  |  |  |  |  | diffuses through human skin faster than does the drug itself [4]: ~ 60 times |
| CN1C(C(=O)Nc2nccs2)=C(O)c2ccccc2S1(=O)=O [sudoxiam, reference compound] |  |  |  |  |  |  |  |  |  |  | peak plasma levels (in vivo): ~0.005 mg/mL |
